From patent US9156845B2, “4-(substituted amino)-7H-pyrrolo[2,3-d] pyrimidines as LRRK2 inhibitors” (Pfizer Inc., priority 2012, dated 2015)
pIC50: −log10 of the molar value.

What was measured:
[1] = target: GST-tagged truncated LRRK2 (Homo sapiens (Human), UniProt Q5S007); assay: LRRK2 Lantha Screen kinase assay; assay type: biochemical; conditions: geometric mean of 2-5 determinations unless otherwise indicated (a: >=6 determinations; b: single determination); read-out: LRRK2 WT IC50
[2] = test system: ABL, ARG; assay: ActivX kinase probe assay (human PBMC); assay type: binding
[3] = target: ACK (Homo sapiens (Human), UniProt Q07912); assay: ActivX kinase probe assay (human PBMC); assay type: binding; conditions: ACK, read-out: percent inhibition
[4] = test system: AKT2, AKT3; assay: ActivX kinase probe assay (human PBMC); assay type: binding
[5] = target: BTK (Homo sapiens (Human), UniProt Q06187); assay: ActivX kinase probe assay (human PBMC); assay type: binding; conditions: BTK, read-out: percent inhibition
[6] = target: CaMK1a (Homo sapiens (Human), UniProt Q14012); assay: ActivX kinase probe assay (human PBMC); assay type: binding; conditions: CaMK1a, read-out: percent inhibition
[7] = target: CaMK2g (Homo sapiens (Human), UniProt Q13555); assay: ActivX kinase probe assay (human PBMC); assay type: binding; conditions: CaMK2g, read-out: percent inhibition
[8] = test system: CDK11, CDK8; assay: ActivX kinase probe assay (human PBMC); assay type: binding
[9] = target: CDK2 (Homo sapiens (Human), UniProt P24941); assay: ActivX kinase probe assay (human PBMC); assay type: binding; conditions: CDK2, read-out: percent inhibition
[10] = target: CHK2 (Homo sapiens (Human), UniProt O96017); assay: ActivX kinase probe assay (human PBMC); assay type: binding; conditions: CHK2, read-out: percent inhibition
[11] = target: DGKA (Homo sapiens (Human), UniProt P23743); assay: ActivX kinase probe assay (human PBMC); assay type: binding; conditions: DGKA, read-out: percent inhibition
[12] = target: FAK (Homo sapiens (Human), UniProt Q05397); assay: ActivX kinase probe assay (human PBMC); assay type: binding; conditions: FAK, read-out: percent inhibition
[13] = target: FES (Homo sapiens (Human), UniProt P07332); assay: ActivX kinase probe assay (human PBMC); assay type: binding; conditions: FES, read-out: percent inhibition
[14] = test system: FYN, SRC, YES; assay: ActivX kinase probe assay (human PBMC); assay type: binding
[15] = target: GCN2 (Homo sapiens (Human), UniProt Q9P2K8); assay: ActivX kinase probe assay (human PBMC); assay type: binding; conditions: GCN2, read-out: percent inhibition
[16] = target: GPRK6 (Homo sapiens (Human), UniProt P43250); assay: ActivX kinase probe assay (human PBMC); assay type: binding; conditions: GPRK6, read-out: percent inhibition
[17] = target: IRE1 (Homo sapiens (Human), UniProt O75460); assay: ActivX kinase probe assay (human PBMC); assay type: binding; conditions: IRE1, read-out: percent inhibition
[18] = target: JAK3 domain2 (Homo sapiens (Human), UniProt P52333); assay: ActivX kinase probe assay (human PBMC); assay type: binding; conditions: JAK3 domain2, read-out: percent inhibition
[19] = target: LKB1 (Homo sapiens (Human), UniProt Q15831); assay: ActivX kinase probe assay (human PBMC); assay type: binding; conditions: LKB1, read-out: percent inhibition
[20] = target: LOK (Homo sapiens (Human), UniProt O94804); assay: ActivX kinase probe assay (human PBMC); assay type: binding; conditions: LOK, read-out: percent inhibition
[21] = target: MAP2K1 (Homo sapiens (Human), UniProt Q02750); assay: ActivX kinase probe assay (human PBMC); assay type: binding; conditions: MAP2K1, read-out: percent inhibition
[22] = target: MAP3K4 (Homo sapiens (Human), UniProt Q9Y6R4); assay: ActivX kinase probe assay (human PBMC); assay type: binding; conditions: MAP3K4, read-out: percent inhibition
[23] = target: MAP3K5 (Homo sapiens (Human), UniProt Q99683); assay: ActivX kinase probe assay (human PBMC); assay type: binding; conditions: MAP3K5, read-out: percent inhibition
[24] = target: MARK2 (Homo sapiens (Human), UniProt Q7KZI7); assay: ActivX kinase probe assay (human PBMC); assay type: binding; conditions: MARK2, read-out: percent inhibition
[25] = target: MARK3 (Homo sapiens (Human), UniProt P27448); assay: ActivX kinase probe assay (human PBMC); assay type: binding; conditions: MARK3, read-out: percent inhibition
[26] = target: MSK1 domain1 (Homo sapiens (Human), UniProt O75582); assay: ActivX kinase probe assay (human PBMC); assay type: binding; conditions: MSK1 domain1, read-out: percent inhibition
[27] = target: NEK1 (Homo sapiens (Human), UniProt Q96PY6); assay: ActivX kinase probe assay (human PBMC); assay type: binding; conditions: NEK1, read-out: percent inhibition
[28] = test system: NEK6, NEK7; assay: ActivX kinase probe assay (human PBMC); assay type: binding
[29] = target: NEK7 (Homo sapiens (Human), UniProt Q8TDX7); assay: ActivX kinase probe assay (human PBMC); assay type: binding; conditions: NEK7, read-out: percent inhibition
[30] = target: PIK3C3 (Homo sapiens (Human), UniProt Q8NEB9); assay: ActivX kinase probe assay (human PBMC); assay type: binding; conditions: PIK3C3, read-out: percent inhibition
[31] = target: PIK3CD (Homo sapiens (Human), UniProt O00329); assay: ActivX kinase probe assay (human PBMC); assay type: binding; conditions: PIK3CD, read-out: percent inhibition
[32] = test system: RSK1, RSK2, RSK3 domain1; assay: ActivX kinase probe assay (human PBMC); assay type: binding
[33] = target: TBK1 (Homo sapiens (Human), UniProt Q9UHD2); assay: ActivX kinase probe assay (human PBMC); assay type: binding; conditions: TBK1, read-out: percent inhibition
[34] = target: ULK3 (Homo sapiens (Human), UniProt Q6PHR2); assay: ActivX kinase probe assay (human PBMC); assay type: binding; conditions: ULK3, read-out: percent inhibition
[35] = test system: Wnk1, Wnk2, Wnk3; assay: ActivX kinase probe assay (human PBMC); assay type: binding

Sequence of PIK3CD (O00329 whole entry, the tested form may be a part): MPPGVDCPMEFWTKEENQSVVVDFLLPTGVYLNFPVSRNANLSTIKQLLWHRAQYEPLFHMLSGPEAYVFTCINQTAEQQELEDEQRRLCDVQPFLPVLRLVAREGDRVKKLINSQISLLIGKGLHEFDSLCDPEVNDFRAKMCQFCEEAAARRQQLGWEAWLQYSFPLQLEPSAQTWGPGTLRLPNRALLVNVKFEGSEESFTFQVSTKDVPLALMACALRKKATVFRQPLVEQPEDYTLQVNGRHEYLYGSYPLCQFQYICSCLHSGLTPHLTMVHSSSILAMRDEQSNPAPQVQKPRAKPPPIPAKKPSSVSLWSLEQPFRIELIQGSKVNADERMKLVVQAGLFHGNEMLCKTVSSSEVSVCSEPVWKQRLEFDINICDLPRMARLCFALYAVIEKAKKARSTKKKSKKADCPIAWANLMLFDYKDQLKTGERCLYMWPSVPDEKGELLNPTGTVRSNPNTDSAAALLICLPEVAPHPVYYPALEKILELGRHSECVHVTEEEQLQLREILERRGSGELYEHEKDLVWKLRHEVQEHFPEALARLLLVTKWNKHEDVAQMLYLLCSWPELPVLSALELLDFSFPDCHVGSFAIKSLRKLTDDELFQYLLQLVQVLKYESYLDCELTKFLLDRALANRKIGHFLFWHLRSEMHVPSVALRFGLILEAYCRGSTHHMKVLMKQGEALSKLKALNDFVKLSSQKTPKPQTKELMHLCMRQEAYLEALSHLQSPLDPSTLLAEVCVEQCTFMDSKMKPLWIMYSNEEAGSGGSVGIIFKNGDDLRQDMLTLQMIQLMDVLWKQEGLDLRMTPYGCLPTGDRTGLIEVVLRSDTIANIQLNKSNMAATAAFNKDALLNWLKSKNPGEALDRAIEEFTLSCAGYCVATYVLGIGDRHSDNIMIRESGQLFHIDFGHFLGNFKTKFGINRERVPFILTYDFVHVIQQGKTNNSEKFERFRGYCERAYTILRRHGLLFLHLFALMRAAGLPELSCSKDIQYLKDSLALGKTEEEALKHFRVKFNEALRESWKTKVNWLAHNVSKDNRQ
Sequence of PIK3CD (P27986 whole entry partner, the tested form may be a part): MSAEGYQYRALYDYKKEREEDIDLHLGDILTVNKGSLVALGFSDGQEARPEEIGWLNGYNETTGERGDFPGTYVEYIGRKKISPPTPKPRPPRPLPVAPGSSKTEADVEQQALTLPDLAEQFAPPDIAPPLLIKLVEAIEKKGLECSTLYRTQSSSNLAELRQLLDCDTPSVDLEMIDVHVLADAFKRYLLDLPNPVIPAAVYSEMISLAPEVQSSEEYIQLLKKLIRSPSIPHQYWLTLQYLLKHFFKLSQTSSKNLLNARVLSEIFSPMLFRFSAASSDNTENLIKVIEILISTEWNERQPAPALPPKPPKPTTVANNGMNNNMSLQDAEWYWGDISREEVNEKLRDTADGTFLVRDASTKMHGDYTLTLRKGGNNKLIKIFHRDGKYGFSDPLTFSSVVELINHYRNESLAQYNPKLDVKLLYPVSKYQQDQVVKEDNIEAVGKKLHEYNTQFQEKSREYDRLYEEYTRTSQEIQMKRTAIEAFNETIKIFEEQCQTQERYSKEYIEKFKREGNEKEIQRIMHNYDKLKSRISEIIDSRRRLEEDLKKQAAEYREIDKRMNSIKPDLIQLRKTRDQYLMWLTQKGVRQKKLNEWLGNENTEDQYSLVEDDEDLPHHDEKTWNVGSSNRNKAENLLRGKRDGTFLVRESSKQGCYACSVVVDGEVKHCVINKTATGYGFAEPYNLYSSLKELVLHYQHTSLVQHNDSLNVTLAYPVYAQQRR
Sequence of MAP2K1 (Q02750 whole entry): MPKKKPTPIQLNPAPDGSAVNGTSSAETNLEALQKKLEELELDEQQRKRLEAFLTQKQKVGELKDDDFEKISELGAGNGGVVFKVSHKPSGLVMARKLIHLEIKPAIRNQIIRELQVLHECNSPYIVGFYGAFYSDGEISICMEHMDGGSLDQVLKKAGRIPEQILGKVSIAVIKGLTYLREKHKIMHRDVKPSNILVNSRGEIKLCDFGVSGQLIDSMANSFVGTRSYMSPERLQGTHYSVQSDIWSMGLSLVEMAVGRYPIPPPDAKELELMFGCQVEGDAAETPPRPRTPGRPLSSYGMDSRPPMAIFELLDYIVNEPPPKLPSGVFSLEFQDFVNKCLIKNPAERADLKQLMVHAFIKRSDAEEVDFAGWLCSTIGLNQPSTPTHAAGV
Sequence of FES (P07332 whole entry): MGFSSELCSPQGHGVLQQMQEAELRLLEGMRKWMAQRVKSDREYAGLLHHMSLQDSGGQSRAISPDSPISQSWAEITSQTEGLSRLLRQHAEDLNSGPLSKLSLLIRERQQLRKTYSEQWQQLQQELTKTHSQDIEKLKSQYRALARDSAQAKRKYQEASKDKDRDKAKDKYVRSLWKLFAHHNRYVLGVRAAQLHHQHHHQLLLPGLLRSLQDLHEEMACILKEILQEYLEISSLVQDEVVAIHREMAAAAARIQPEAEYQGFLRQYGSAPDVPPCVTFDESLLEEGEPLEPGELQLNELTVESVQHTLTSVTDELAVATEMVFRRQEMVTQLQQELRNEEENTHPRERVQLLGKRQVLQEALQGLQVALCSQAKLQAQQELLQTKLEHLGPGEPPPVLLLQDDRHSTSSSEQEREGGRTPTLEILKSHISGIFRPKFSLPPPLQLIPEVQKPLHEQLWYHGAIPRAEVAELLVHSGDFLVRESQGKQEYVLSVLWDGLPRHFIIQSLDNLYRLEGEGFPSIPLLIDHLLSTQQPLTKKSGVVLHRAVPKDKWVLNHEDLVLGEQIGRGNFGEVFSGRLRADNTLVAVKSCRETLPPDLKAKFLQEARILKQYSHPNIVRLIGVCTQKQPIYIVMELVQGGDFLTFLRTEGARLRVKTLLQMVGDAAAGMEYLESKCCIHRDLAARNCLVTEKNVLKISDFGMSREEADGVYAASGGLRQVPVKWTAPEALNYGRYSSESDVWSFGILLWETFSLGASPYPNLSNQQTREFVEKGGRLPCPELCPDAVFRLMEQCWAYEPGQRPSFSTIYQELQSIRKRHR
Sequence of ULK3 (Q6PHR2 whole entry): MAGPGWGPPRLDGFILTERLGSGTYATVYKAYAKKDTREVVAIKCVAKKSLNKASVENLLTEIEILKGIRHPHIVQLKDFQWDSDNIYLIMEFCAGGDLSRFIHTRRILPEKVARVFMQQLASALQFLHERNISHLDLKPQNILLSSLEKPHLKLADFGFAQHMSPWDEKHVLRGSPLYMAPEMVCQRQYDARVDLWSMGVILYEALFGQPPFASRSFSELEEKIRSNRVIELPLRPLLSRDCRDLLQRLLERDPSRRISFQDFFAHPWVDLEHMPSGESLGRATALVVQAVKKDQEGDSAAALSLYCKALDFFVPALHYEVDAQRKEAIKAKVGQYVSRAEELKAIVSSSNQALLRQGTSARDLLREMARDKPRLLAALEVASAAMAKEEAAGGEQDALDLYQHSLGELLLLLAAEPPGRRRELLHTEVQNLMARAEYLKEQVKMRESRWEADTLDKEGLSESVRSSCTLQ
Sequence of GPRK6 (P43250 whole entry): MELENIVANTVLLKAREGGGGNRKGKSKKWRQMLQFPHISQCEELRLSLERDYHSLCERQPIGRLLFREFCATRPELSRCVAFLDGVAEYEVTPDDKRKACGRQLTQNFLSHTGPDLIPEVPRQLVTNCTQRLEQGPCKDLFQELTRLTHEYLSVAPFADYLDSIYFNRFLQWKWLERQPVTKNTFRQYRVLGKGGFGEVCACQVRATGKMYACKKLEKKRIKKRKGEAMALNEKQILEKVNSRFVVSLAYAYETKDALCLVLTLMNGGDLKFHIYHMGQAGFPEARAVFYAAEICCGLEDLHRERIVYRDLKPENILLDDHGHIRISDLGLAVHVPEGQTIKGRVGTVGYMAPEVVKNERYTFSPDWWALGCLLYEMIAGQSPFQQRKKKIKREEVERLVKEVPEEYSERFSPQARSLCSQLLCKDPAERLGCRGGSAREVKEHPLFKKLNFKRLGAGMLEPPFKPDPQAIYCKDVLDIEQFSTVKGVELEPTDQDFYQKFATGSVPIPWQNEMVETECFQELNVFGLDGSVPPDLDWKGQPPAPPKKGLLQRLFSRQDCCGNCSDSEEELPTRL
Sequence of NEK7 (Q8TDX7 whole entry): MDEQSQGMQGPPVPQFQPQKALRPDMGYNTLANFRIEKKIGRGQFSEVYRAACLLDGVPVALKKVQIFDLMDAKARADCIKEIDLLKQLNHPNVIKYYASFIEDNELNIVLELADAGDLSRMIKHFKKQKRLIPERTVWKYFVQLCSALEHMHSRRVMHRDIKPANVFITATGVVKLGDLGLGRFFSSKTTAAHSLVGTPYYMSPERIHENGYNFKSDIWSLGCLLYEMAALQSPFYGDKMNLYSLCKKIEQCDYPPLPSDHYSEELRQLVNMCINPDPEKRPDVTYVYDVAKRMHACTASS
Sequence of CaMK2g (Q13555 whole entry): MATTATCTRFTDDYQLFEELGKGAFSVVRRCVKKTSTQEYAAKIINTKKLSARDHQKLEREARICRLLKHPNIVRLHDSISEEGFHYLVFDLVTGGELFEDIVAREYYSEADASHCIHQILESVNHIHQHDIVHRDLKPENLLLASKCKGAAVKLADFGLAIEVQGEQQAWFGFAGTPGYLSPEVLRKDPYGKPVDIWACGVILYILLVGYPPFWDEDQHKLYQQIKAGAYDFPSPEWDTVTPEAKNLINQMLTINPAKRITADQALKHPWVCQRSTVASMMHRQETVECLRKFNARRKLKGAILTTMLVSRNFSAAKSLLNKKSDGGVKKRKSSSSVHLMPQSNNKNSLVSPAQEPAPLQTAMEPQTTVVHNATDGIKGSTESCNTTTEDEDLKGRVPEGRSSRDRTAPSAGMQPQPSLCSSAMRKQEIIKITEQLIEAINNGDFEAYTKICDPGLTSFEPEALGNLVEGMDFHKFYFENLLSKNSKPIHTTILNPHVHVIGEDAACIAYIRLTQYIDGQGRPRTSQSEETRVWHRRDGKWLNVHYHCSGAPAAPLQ

`Cn1cc(-c2c[nH]c3ncnc(N4CCOCC4)c23)cc1C#N` [Example 217, 1-methyl-4-[4-(morpholin-4-yl)-7H-pyrrolo[2,3-d]pyrimidin-5-yl]-1H-pyrrole-2-carbonitrile] gave a pIC50 [1] of 8.20, a percent inhibition ([2]; 0.1 μM) of 4.6% and a percent inhibition ([2]; 1 μM) of −1.6%. The inhibition at 0.1 µM ([3]; 0.1 μM) was -9.8%, the inhibition at 1 µM ([3]; 1 μM) was -19.5% and the percent inhibition ([4]; 0.1 μM) was −9.7%. It also gave a percent inhibition ([4]; 1 μM) of −3.8%, an inhibition at 0.1 µM ([5]; 0.1 μM) of 24.3% and an inhibition at 1 µM ([5]; 1 μM) of 8.5%. For the same compound, the inhibition at 0.1 µM ([6]; 0.1 μM) was -5.4%, the inhibition at 1 µM ([6]; 1 μM) was -7.1% and the inhibition at 0.1 µM ([7]; 0.1 μM) was 4.3%. For the same compound, the inhibition at 1 µM ([7]; 1 μM) was 18.7%, the percent inhibition ([8]; 0.1 μM) was −5.6% and the percent inhibition ([8]; 1 μM) was −5.2%. It also gave an inhibition at 0.1 µM ([9]; 0.1 μM) of 3.6%, an inhibition at 1 µM ([9]; 1 μM) of 16.5% and an inhibition at 0.1 µM ([10]; 0.1 μM) of 8.6%. For the same compound, the inhibition at 1 µM ([10]; 1 μM) was 6.4%, the inhibition at 0.1 µM ([11]; 0.1 μM) was -2.8% and the inhibition at 1 µM ([11]; 1 μM) was 4.7%. The inhibition at 0.1 µM ([12]; 0.1 μM) was 8.1%, the inhibition at 1 µM ([12]; 1 μM) was 17.4% and the inhibition at 0.1 µM ([13]; 0.1 μM) was 8.4%. For the same compound, the inhibition at 1 µM ([13]; 1 μM) was 6.2%, the percent inhibition ([14]; 0.1 μM) was 18.4% and the percent inhibition ([14]; 1 μM) was −1.4%. It also gave an inhibition at 0.1 µM ([15]; 0.1 μM) of -7.7%, an inhibition at 1 µM ([15]; 1 μM) of -3.1% and an inhibition at 0.1 µM ([16]; 0.1 μM) of -0.8%. For the same compound, the inhibition at 1 µM ([16]; 1 μM) was 3.6%, the inhibition at 0.1 µM ([17]; 0.1 μM) was 3.2% and the inhibition at 1 µM ([17]; 1 μM) was -19.5%. The inhibition at 0.1 µM ([18]; 0.1 μM) was -7.8%, the inhibition at 1 µM ([18]; 1 μM) was 4.9% and the inhibition at 0.1 µM ([19]; 0.1 μM) was -5.3%. For the same compound, the inhibition at 1 µM ([19]; 1 μM) was 2.4%, the inhibition at 0.1 µM ([20]; 0.1 μM) was -6.4% and the inhibition at 1 µM ([20]; 1 μM) was 56.1%. For the same compound, the inhibition at 0.1 µM ([21]; 0.1 μM) was 17.2%, the inhibition at 1 µM ([21]; 1 μM) was -1.5% and the inhibition at 0.1 µM ([22]; 0.1 μM) was -35.5%. The inhibition at 1 µM ([22]; 1 μM) was -27.4%, the inhibition at 0.1 µM ([23]; 0.1 μM) was 7% and the inhibition at 1 µM ([23]; 1 μM) was 44.5%. It also gave an inhibition at 0.1 µM ([24]; 0.1 μM) of -5%, an inhibition at 1 µM ([24]; 1 μM) of 13.1% and an inhibition at 0.1 µM ([25]; 0.1 μM) of 16.2%. The inhibition at 1 µM ([25]; 1 μM) was 18.4%, the inhibition at 0.1 µM ([26]; 0.1 μM) was -12.1% and the inhibition at 1 µM ([26]; 1 μM) was -2.2%. It also gave an inhibition at 0.1 µM ([27]; 0.1 μM) of 4.8%, an inhibition at 1 µM ([27]; 1 μM) of -5.1% and a percent inhibition ([28]; 0.1 μM) of −2.9%. For the same compound, the percent inhibition ([28]; 1 μM) was 6.4%, the inhibition at 0.1 µM ([29]; 0.1 μM) was -9% and the inhibition at 1 µM ([29]; 1 μM) was -2.3%. It also gave an inhibition at 0.1 µM ([30]; 0.1 μM) of 19.9%, an inhibition at 1 µM ([30]; 1 μM) of 10.2% and an inhibition at 0.1 µM ([31]; 0.1 μM) of -0.4%. The inhibition at 1 µM ([31]; 1 μM) was 10%, the percent inhibition ([32]; 0.1 μM) was 5.0% and the percent inhibition ([32]; 1 μM) was 48.5%. The inhibition at 0.1 µM ([33]; 0.1 μM) was 1.9%, the inhibition at 1 µM ([33]; 1 μM) was 0.1% and the inhibition at 0.1 µM ([34]; 0.1 μM) was -8.6%. It also gave an inhibition at 1 µM ([34]; 1 μM) of 17.4%, a percent inhibition ([35]; 0.1 μM) of −6.3% and a percent inhibition ([35]; 1 μM) of −21.1%.
